Data published in US12139487B2, “Compounds and uses thereof” (Foghorn Therapeutics Inc., priority 2022, dated 2024).
pIC50: −log10 of the molar value.

Tests used:
[1] = target: T1, BRM (Homo sapiens, UniProt P51531); assay: ATPase catalytic activity assay (ADP-Glo), BRM; type: biochemical; details: Table 10; for Ratio (BRG1 IC50 (μM) divided by BRM IC50 (μM)): ATPase assay, selectivity BRG1/BRM; for pIC50: ATPase catalytic activity assay (ADP-Glo)
T1 construct: made in house; host or cells: High Five insect cells
T1 sequence (P51531 whole entry): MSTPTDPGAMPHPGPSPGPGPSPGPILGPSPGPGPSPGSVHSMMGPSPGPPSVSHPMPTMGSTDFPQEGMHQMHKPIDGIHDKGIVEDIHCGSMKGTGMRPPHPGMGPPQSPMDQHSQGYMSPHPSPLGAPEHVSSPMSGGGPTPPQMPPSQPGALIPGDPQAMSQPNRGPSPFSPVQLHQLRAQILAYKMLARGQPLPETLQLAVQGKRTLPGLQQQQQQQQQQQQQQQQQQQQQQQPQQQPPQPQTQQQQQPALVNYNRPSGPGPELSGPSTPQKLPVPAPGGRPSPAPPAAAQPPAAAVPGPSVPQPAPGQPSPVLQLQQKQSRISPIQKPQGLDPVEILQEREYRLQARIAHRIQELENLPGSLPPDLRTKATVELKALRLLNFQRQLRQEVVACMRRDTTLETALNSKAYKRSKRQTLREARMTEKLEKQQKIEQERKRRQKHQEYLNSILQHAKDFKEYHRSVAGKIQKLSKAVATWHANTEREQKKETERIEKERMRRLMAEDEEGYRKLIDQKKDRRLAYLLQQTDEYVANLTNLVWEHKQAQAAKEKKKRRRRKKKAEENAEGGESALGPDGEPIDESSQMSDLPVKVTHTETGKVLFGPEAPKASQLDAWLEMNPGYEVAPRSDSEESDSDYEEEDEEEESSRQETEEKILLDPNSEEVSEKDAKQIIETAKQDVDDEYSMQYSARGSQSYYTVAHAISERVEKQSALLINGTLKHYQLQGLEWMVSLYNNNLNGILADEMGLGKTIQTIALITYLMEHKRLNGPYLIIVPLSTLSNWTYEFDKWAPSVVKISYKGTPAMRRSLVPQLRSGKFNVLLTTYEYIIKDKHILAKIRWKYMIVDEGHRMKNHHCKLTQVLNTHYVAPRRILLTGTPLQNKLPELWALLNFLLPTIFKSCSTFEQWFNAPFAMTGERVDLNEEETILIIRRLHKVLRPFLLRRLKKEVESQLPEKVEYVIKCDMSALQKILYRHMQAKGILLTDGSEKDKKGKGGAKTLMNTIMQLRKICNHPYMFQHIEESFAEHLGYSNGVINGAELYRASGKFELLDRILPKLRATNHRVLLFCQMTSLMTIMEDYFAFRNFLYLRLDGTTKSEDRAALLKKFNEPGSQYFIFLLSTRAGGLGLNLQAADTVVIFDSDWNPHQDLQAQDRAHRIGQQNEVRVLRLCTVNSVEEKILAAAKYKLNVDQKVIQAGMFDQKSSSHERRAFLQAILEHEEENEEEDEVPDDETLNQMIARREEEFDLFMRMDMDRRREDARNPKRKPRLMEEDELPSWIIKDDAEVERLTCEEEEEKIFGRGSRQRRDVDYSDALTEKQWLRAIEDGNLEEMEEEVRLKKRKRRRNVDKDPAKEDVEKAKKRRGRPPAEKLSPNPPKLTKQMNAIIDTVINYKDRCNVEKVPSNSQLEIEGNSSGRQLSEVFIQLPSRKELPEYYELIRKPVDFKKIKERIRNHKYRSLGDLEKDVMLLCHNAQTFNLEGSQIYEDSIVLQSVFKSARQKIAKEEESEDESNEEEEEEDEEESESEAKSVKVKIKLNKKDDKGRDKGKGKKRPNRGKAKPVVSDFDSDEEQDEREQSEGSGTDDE
Method in brief: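 Reaction holds 30 nM BRM, 20 nM salmon sperm DNA and 400 μM ATP in 20 mM Tris pH 8, 20 mM MgCl2, 50 mM NaCl, 0.1% Tween-20, 1 mM DTT. Incubated 1 h at room temperature. ADP formed is detected by ADP-Glo luminescence.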

[2] = target: T2, BRG-1 (Homo sapiens, UniProt P51532); assay: ATPase catalytic activity assay (ADP-Glo), BRG-1; type: biochemical; details: Table 10, read-out: BRG1 IC50
T2 construct: made in house; host or cells: High Five insect cells
T2 sequence (P51532 whole entry): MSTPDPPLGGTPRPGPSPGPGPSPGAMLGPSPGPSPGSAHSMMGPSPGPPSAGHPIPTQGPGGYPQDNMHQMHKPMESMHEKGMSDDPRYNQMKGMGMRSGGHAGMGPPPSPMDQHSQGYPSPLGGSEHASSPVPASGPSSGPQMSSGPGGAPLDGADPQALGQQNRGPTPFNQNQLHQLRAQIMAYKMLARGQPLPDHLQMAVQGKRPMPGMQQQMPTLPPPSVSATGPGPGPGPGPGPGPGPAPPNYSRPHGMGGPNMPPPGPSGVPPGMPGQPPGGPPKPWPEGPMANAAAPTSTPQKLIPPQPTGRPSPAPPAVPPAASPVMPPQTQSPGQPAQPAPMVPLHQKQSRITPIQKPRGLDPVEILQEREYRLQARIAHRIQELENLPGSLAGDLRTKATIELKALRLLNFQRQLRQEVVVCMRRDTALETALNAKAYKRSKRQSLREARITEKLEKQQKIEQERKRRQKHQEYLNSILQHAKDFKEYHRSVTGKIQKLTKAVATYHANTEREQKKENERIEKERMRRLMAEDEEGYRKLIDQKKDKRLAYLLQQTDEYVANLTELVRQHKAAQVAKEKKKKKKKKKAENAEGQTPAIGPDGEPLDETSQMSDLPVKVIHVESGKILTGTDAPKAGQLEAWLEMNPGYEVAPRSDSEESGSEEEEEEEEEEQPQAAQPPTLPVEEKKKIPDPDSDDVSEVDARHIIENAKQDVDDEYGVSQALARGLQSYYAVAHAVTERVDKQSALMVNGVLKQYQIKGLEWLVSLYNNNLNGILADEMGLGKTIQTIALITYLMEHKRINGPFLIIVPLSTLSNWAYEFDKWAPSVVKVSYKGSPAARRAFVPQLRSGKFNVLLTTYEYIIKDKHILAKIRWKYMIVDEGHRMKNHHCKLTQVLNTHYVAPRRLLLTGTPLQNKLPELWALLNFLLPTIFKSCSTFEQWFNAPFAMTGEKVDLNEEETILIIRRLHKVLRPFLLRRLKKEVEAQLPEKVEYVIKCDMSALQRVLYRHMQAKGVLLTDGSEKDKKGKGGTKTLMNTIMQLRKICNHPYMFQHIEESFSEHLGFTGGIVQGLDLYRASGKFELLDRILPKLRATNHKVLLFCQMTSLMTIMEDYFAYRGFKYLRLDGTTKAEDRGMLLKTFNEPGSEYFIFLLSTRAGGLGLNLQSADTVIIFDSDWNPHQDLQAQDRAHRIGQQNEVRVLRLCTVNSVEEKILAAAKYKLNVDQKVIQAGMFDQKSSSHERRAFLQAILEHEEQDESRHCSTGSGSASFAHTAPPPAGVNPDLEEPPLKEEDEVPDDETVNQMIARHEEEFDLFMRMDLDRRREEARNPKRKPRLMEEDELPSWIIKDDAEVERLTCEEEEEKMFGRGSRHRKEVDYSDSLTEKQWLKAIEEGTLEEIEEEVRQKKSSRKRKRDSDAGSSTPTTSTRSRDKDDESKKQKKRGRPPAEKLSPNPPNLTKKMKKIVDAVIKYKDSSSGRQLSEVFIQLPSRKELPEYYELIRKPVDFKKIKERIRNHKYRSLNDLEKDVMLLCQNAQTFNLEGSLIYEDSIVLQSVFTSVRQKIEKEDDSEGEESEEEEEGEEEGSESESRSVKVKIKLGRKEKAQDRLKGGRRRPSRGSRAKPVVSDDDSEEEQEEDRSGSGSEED
Method in brief: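 BRG-1 ATPase activity was measured by ADP-Glo. Unconsumed ATP was depleted for 40 min at room temperature, then ADP was converted to ATP for 60 min and read as luminescence.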

Row | Structure (SMILES) | Ratio (BRG1 IC50 (μM) divided by BRM IC50 (μM)) [1] | pIC50 [1] | pIC50 [2]
1 | COc1cc(F)ccc1-c1ccc2cnc(CNC(=O)c3cc(F)c4c(c3)S(=O)(=O)[C@@H](F)CCO4)cc2n1 [Compound 266] | 18.84 | 8.06 | 6.81
2 | Cc1cc2c(-c3ccc4cnc(CNC(=O)c5cc(F)c6c(c5)S(=O)(=O)[C@@H](F)CCO6)cc4n3)ccnc2n1C [Compound 267] | 10.49 | 8.06 | 7.04
3 | O=C(NCc1cc2cc(-c3cccc([C@@H]4CC4(F)F)n3)ccc2cn1)c1cc(F)c2c(c1)S(=O)(=O)[C@@H](F)CCO2 [Compound 268] | 22.51 | 8.06 | 6.70
4 | C[C@H]1N(c2cnc3c(c2)OCCN3c2ccc3cnc(CNC(=O)c4cc(F)c5c(c4)S(=O)(=O)[C@@H](F)CCO5)cc3n2)CC1(F)F [Compound 269] | 11.77 | 8.05 | 6.96
5 | COc1cccc(-c2ccc3cnc(CNC(=O)c4cc(F)c5c(c4)S(=O)(=O)[C@@H](F)COC5)cc3n2)n1 [Compound 270] | 22.02 | 8.05 | 6.76
6 | COCCOc1cnc2c(c1)CCCN2c1ccc2cnc(CNC(=O)c3cc(F)c4c(c3)S(=O)(=O)[C@@H](F)CCO4)cc2n1 [Compound 271] | 29.78 | 8.05 | 6.53
7 | O=C(NCc1cc2nc(N3CCCc4ccc(C(F)F)nc43)ccc2cn1)c1cc(Cl)c2c(c1)S(=O)(=O)[C@@H](F)CCO2 [Compound 272] | 23.60 | 8.05 | 6.70
8 | COc1ccc(-c2ccc3cnc(CNC(=O)c4cc(F)c5c(c4)S(=O)(=O)[C@@H](F)CCO5)cc3n2)nc1[C@@H]1CC1(F)F [Compound 273] | 23.61 | 8.05 | 6.68
9 | C[C@@H](F)c1cnc2c(c1)OCCN2c1ccc2cnc(CNC(=O)c3cc(F)c4c(c3)S(=O)(=O)[C@@H](F)CCO4)cc2n1 [Compound 274] | 22.22 | 8.05 | 6.72
10 | COCC1(c2cccc(-c3ccc4cnc(CNC(=O)c5cc(F)c6c(c5)S(=O)(=O)[C@@H](F)CCO6)cc4n3)n2)CC1 [Compound 275] | 14.02 | 8.04 | 6.89
11 | O=C(NCc1cc2nc(N3CCOc4cc(N5CC6CC6C5)cnc43)ccc2cn1)c1cc(F)c2c(c1)S(=O)(=O)[C@@H](F)CCO2 (stereo partly drawn) [Compound 276] | 14.41 | 8.04 | 6.88
12 | O=C(NCc1cc2nc(N3CCOc4ccc([C@H]5C[C@H]5F)nc43)ccc2cn1)c1cc(F)c2c(c1)S(=O)(=O)[C@@H](F)CCO2 [Compound 277] | 19.61 | 8.04 | 7.05
13 | C[C@H](NC(=O)c1cc(F)c2c(c1)S(=O)(=O)[C@@H](F)COC2)c1cc2nc(N3CCOc4cc(C5CC5)cnc43)ccc2cn1 [Compound 278] | 9.67 | 8.04 | 7.12
14 | O=C(NCc1cc2nc(N3CCOc4ccc([C@H](F)CF)nc43)ccc2cn1)c1cc(F)c2c(c1)S(=O)(=O)[C@@H](F)CCO2 [Compound 279] | 18.19 | 8.04 | 6.78
15 | COc1ccc(-c2ccc3cnc(CNC(=O)c4cc(F)c5c(c4)S(=O)(=O)[C@@H](F)COC5)cc3n2)nc1[C@H]1CC1(F)F [Compound 280] | 11.58 | 8.04 | 6.97
16 | C#Cc1cnc2c(c1)OCCN2c1ccc2cnc(CNC(=O)c3cc(F)c4c(c3)S(=O)(=O)[C@@H](F)CCO4)cc2n1 [Compound 281] | 10.16 | 8.03 | 7.03
17 | O=C(NCc1cc2nc(N3CCOc4cc(F)cnc43)ccc2cn1)c1cc(F)c2c(c1)S(=O)(=O)[C@@H](F)CCO2 [Compound 282] | 17.58 | 8.03 | 6.79
18 | O=C(NCc1cc2cc(-c3cncc(C4CCC4)n3)ccc2cn1)c1cc(F)c2c(c1)S(=O)(=O)[C@@H](F)CCO2 [Compound 283] | 28.86 | 8.03 | 6.41
19 | C[C@@H]1CN(c2cnc3c(c2)OCCN3c2ccc3cnc(CNC(=O)c4cc(F)c5c(c4)S(=O)(=O)[C@@H](F)CCO5)cc3n2)C[C@@H]1F [Compound 284] | 11.05 | 8.02 | 6.98
20 | O=C(NCc1cc2nc(N3CCOc4c(N5CC(F)C5)ccnc43)ccc2cn1)c1cc(F)c2c(c1)S(=O)(=O)[C@@H](F)CCO2 [Compound 285] | 9.97 | 8.02 | 7.02

Row | Structure (SMILES) | Ratio (BRG1 IC50 (μM) divided by BRM IC50 (μM)) [1] | pIC50 [1] | pIC50 [2]
21 | O=C(NCc1cc2nc(N3CCOc4cc(N5CCC[C@H](F)C5)cnc43)ccc2cn1)c1cc(F)c2c(c1)S(=O)(=O)[C@@H](F)CCO2 [Compound 286] | 20.51 | 8.02 | 6.71
22 | COc1nc([C@H](F)C(F)F)ccc1-c1ccc2cnc(CNC(=O)c3cc(F)c4c(c3)S(=O)(=O)[C@@H](F)CCO4)cc2n1 [Compound 287] | 11.77 | 8.02 | 6.95
23 | COc1nscc1-c1ccc2cnc(CNC(=O)c3cc(F)c4c(c3)S(=O)(=O)[C@@H](F)CCO4)cc2n1 [Compound 288] | 26.09 | 8.02 | 6.69
24 | C[C@@H]1CCN1c1cnc2c(c1)OCCN2c1ccc2cnc(CNC(=O)c3cc(Cl)c4c(c3)S(=O)(=O)[C@@H](F)COC4)cc2n1 [Compound 289] | 11.49 | 8.02 | 6.94
25 | O=C(NCc1cc2nc(-c3ccnc(C45CC(C4)C5)n3)ccc2cn1)c1cc(F)c2c(c1)S(=O)(=O)[C@@H](F)COC2 [Compound 290] | 17.27 | 8.02 | 6.73
26 | COc1nc(CC(F)F)ccc1-c1ccc2cnc(CNC(=O)c3cc(F)c4c(c3)S(=O)(=O)[C@@H](F)CCO4)cc2n1 [Compound 292] | 23.12 | 8.01 | 6.65
27 | O=C(NCc1cc2nc(N3CCCc4cc(C5COC5)cnc43)ccc2cn1)c1cc(F)c2c(c1)S(=O)(=O)[C@@H](F)CCO2 [Compound 293] | 17.20 | 8.01 | 6.77
28 | COc1ccc(-c2ccc3cnc(CNC(=O)c4cc(Cl)c5c(c4)S(=O)(=O)[C@@H](F)COC5)cc3n2)nc1[C@@H]1CC1(F)F [Compound 294] | 35.16 | 8.01 | 6.46
29 | COCCOc1nccc2c1CCCN2c1ccc2cnc(CNC(=O)c3cc(F)c4c(c3)S(=O)(=O)[C@@H](F)CCO4)cc2n1 [Compound 295] | 16.68 | 8.01 | 6.76
30 | CN(C)c1ccnc2c1OCCN2c1ccc2cnc(CNC(=O)c3cc(F)c4c(c3)S(=O)(=O)[C@@H](F)CCO4)cc2n1 [Compound 296] | 11.58 | 8.00 | 6.94
31 | O=C(NCc1cc2nc(-c3cccc(OC(F)F)c3)ccc2cn1)c1cc(F)c2c(c1)S(=O)(=O)[C@@H](F)COC2 [Compound 297, (2R)—N-[[2-[3-(difluoromethoxy)phenyl]-1,6-naphthyridin-7-yl]methyl]-2,6-difluoro-1,1-dioxo-3,5-dihydro-2H-4,1λ6-benzoxathiepine-8-carboxamide] | 29.64 | 8.00 | 6.57
32 | COc1nc([C@@H](F)C(F)F)ccc1-c1ccc2cnc(CNC(=O)c3cc(F)c4c(c3)S(=O)(=O)[C@@H](F)CCO4)cc2n1 [Compound 298] | 14.40 | 8.00 | 6.85
33 | C[C@@H]1CCN1c1cnc2c(c1)OCCN2c1ccc2cnc(CNC(=O)c3cc(Br)c4c(c3)S(=O)(=O)[C@@H](F)CCO4)cc2n1 [Compound 299] | 29.29 | 8.00 | 6.53
34 | C[C@H]1C[C@H]1c1cnc2c(c1)OCCN2c1ccc2cnc(CNC(=O)c3cc(F)c4c(c3)S(=O)(=O)[C@@H](F)CCO4)cc2n1 [Compound 300] | 11.89 | 8.00 | 6.93
35 | COc1nc(-c2ccc3cnc(CNC(=O)c4cc(Cl)c5c(c4)S(=O)(=O)[C@@H](F)COC5)cc3n2)ccc1C(F)F [Compound 301] | 18.66 | 8.00 | 6.76
36 | O=C(NCc1cc2nc(-c3cccc(C4CC4)n3)ccc2cn1)c1cc(Cl)c2c(c1)S(=O)(=O)[C@@H](F)COC2 [Compound 302] | 30.11 | 8.00 | 6.46
37 | O=C(NCc1cc2cc(N3CCOc4cc(C(F)F)cnc43)ccc2cn1)c1cc(F)c2c(c1)S(=O)(=O)[C@@H](F)CCO2 [Compound 303] | 10.70 | 8.00 | 6.97
38 | O=C(NCc1cc2nc(N3CCOc4cc(F)c(C(F)F)nc43)ccc2cn1)c1cc(F)c2c(c1)S(=O)(=O)[C@@H](F)CCO2 [Compound 304] | 15.65 | 8.00 | 6.80
39 | COc1cnc2c(c1)CCCN2c1ccc2cnc(CNC(=O)c3cc(F)c4c(c3)S(=O)(=O)[C@@H](F)CCO4)cc2c1 [Compound 305] | 12.14 | 7.99 | 6.90
